# From paper PMC7329812 (Scientific Reports, 2020)
# Read-outs that look alike come from different tables or passages of the source.
# Tests used:
# NaChBac = NaChBac (Halalkalibacterium halodurans (Bacillus halodurans), UniProt Q9KCR8); assay: cell-based; assay type: cell-based; settings: for inhibition at 7 µM: HEK293, read-out: inhibition of WT NaChBac peak currents
# F224A NaChBac = assay type: cell-based, Bacillus halodurans; settings: for effect on F224A NaChBac channel currents: 7 µM
# human NaV1.7 = human NaV1.7 (Homo sapiens, UniProt Q15858); assay: cell-based; assay type: cell-based
# F227A NaChBac = assay type: cell-based, Bacillus halodurans
# human NaV1.7, sequence (Q15858 whole entry): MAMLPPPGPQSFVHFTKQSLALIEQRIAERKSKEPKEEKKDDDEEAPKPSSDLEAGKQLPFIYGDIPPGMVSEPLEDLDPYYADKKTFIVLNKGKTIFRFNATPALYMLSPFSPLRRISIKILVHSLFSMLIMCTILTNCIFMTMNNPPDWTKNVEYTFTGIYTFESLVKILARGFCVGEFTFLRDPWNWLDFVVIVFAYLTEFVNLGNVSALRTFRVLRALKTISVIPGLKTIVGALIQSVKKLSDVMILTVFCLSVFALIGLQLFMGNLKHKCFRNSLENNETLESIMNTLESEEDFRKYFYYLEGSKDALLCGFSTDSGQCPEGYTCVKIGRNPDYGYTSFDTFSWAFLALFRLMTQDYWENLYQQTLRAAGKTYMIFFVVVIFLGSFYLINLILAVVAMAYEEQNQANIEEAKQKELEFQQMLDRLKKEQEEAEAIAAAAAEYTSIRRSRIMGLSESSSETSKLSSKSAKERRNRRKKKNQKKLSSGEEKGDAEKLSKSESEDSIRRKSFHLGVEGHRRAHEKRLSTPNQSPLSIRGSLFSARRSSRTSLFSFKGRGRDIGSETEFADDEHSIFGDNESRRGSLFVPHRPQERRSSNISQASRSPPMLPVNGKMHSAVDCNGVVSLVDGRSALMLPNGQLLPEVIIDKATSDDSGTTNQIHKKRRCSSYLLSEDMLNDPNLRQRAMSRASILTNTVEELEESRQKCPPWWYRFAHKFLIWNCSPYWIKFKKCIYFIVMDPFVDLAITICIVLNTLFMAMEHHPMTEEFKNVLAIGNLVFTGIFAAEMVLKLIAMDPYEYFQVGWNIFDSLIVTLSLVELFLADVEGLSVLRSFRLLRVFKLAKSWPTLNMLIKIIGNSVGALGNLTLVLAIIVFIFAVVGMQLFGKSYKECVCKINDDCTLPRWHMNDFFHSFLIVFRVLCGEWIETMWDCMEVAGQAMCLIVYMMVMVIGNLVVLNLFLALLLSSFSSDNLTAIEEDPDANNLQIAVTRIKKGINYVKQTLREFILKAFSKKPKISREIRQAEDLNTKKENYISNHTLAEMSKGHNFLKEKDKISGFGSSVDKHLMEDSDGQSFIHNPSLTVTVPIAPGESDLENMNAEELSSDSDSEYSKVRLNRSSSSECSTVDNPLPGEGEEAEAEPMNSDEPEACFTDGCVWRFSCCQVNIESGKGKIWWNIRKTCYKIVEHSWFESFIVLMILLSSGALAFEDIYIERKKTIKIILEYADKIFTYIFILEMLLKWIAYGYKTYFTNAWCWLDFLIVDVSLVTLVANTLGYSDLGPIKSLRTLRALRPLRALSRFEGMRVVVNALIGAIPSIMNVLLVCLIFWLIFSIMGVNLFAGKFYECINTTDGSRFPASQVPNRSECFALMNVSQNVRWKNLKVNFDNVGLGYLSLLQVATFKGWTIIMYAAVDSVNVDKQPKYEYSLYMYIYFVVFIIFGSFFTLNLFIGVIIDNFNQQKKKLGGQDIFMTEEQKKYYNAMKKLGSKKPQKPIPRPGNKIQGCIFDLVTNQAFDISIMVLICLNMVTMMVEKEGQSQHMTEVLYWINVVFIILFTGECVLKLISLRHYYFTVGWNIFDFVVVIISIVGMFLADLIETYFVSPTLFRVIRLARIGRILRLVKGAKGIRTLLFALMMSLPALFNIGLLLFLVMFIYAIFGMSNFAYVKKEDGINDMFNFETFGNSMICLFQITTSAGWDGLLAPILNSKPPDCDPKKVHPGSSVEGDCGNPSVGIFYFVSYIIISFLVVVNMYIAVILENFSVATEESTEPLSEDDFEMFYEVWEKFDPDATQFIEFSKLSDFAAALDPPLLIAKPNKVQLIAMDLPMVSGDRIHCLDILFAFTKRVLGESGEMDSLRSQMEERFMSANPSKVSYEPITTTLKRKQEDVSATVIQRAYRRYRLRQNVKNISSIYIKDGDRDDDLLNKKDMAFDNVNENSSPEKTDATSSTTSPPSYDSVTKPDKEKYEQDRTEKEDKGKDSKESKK
# NaChBac, sequence (Q9KCR8 1-274): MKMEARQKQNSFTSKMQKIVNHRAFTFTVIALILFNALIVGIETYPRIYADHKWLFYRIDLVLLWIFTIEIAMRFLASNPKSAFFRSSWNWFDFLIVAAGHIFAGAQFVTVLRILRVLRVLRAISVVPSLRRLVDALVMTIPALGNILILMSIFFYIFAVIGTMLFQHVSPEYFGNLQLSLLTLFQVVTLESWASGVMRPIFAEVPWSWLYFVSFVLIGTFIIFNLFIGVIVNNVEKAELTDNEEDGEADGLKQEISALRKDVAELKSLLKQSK
compound,measurement,setting,value
Cc1cccc(C)c1NC(=O)C1CCCCN1C (stereo not shown) [Mepivacaine],% of block in NaChBac,NaChBac; hek 293 cells,67.7±2.5%
Huwentoxin-IV,% of block in NaChBac,NaChBac,-6.7±2.9%
CCN1C[C@]2(COC)[C@H](O)C[C@H](OC)[C@@]34[C@@H]5C[C@@]6(O)[C@H](OC(=O)c7ccccc7)[C@@H]5[C@@](OC(C)=O)([C@@H]([C@H](OC)[C@H]23)[C@@H]14)[C@@H](O)[C@@H]6OC [Aconitine],effect on F224A NaChBac channel currents,F224A NaChBac,no effect
same,"G–V slope factor k[n], NaV1.7, after compound",human NaV1.7,6.7 ± 0.2
same,"Hill slope, NaV1.7 dose-response",human NaV1.7,1.6
same,IC50,human NaV1.7,7.4 µM
same,block of NaV1.7 channel,human NaV1.7; 7 µM,~ 50%
same,effect on F227A NaChBac channel currents,F227A NaChBac; 7 µM,reduced effect
same,"G–V slope factor k[n], NaChBac, after compound",NaChBac,5.0 ± 0.2
same,"Hill slope, NaChBac dose-response",NaChBac,1.0
same,IC50,NaChBac,1.3 µM
same,effect on NaChBac channel currents,NaChBac,significantly blocked peak inward Na^+ current
same,block of NaChBac channel,NaChBac; 2 µM,~ 50%
same,inhibition at 7 µM,NaChBac; 7 µM,~80%
C[C@H](NCc1ccc(OCc2ccccc2F)cc1)C(N)=O [Ralfinamide],% of block in NaChBac,NaChBac; hek 293 cells,97.7±3.0%
COc1ccc(CCN(C)CCCOc2nsc(-c3ccccc3)n2)cc1OC [kc12291],% of block in NaChBac,NaChBac; hek 293 cells,76.3±1.1%
ProTx-I,% of block in NaChBac,NaChBac,-2.0±3.0%
COc1ccccc1OCC(O)CN1CCN(CC(=O)Nc2c(C)cccc2C)CC1 (stereo not shown) [Ranolazine],% of block in NaChBac,NaChBac; hek 293 cells,42.5±4.3%
"NC1=N[C@H](O)[C@H]2[C@H]3O[C@]4(O)O[C@@H]([C@@H](O)[C@@]2(N1)[C@@H]4O)[C@]3(O)CO [ttx, tetrodotoxin]",% of block in NaChBac,NaChBac,0.5±3.6%
same,effect on NaChBac channel currents,NaChBac,did not significantly alter currents
COc1cc(NC(=O)c2ccc(-c3ccc(Cl)cc3)o2)cc(OC)c1 [A-803467],% of block in NaChBac,NaChBac,-6.3±4.1%
same,effect on NaChBac channel currents,NaChBac,no effects
GSMTx-4,% of block in NaChBac,NaChBac,-5.1±3.0%
NC(=O)N1c2ccccc2CC(=O)c2ccccc21 [oxcarbazepine],% of block in NaChBac,NaChBac; hek 293 cells,18.2±2.5%
Cc1ccc(C(=O)C(C)CN2CCCCC2)cc1 (stereo not shown) [Tolperisone],% of block in NaChBac,NaChBac; hek 293 cells,86.2±2.5%
COc1ccc(C(=O)O[C@H]2CC[C@@]3(C)[C@@H]4CC[C@H]5[C@]6(O)C[C@H](O)[C@@]7(O)[C@@H](CN8C[C@@H](C)CC[C@H]8[C@@]7(C)O)[C@]6(O)C[C@@]53O[C@]24O)cc1OC [Veratridine],effect on F224A NaChBac channel currents,F224A NaChBac,minimal or no block
same,inhibition of F227A NaChBac peak currents,F227A NaChBac; 7 µM,65.1 ± 1.7%
same,"ΔV1/2 of G–V curve, F227A NaChBac",F227A NaChBac; 7 µM,20.1 ± 2.3 mV
same,"G–V slope factor k[n], NaChBac, after compound",NaChBac,10.3 ± 0.3
same,"Hill slope, NaChBac dose-response",NaChBac,0.3
same,effect on NaChBac channel currents,NaChBac,significantly blocked peak inward Na^+ current
same,"ΔV1/2 of G–V curve, WT NaChBac",NaChBac; 7 µM,7.7 ± 1.8 mV
same,inhibition at 7 µM,NaChBac; 7 µM,55.6 ± 2%
same,% of block in NaChBac,NaChBac; hek 293 cells,65.6±3.2%
same,IC50,NaChBac; read-out: IC50 for NaChBac,8.1 µM
ProTx-II,% of block in NaChBac,NaChBac,7.7±3.3%
same,effect on NaChBac channel currents,NaChBac,no effect
Nc1c(Br)cc(Br)cc1CN[C@H]1CC[C@H](O)CC1 [Ambroxol],"G–V slope factor k[n], NaV1.7, after compound",human NaV1.7,6.7 ± 0.2
same,effect on NaV1.7 channel currents,human NaV1.7,robust inhibition
same,"G–V slope factor k[n], NaChBac, after compound",NaChBac,5.7 ± 0.6
same,effect on NaChBac channel currents,NaChBac,robust inhibition
same,% of block in NaChBac,NaChBac; hek 293 cells,93.6±3.8%
Cc1cccc(C)c1OCC(C)N (stereo not shown) [Mexiletine],% of block in NaChBac,NaChBac; hek 293 cells,74.2±1.8%
CCCCN1CCCCC1C(=O)Nc1c(C)cccc1C (stereo not shown) [Bupivacaine],% of block in NaChBac,NaChBac; hek 293 cells,46.6±2.9%
CCN(CC)CC(=O)Nc1c(C)cccc1C [Lidocaine],lidocaine block of F224A NaChBac channels versus WT,F224A NaChBac,decreased but still robust block
same,"G–V slope factor k[n], NaV1.7, after compound",human NaV1.7,7.8 ± 0.2
same,lidocaine block of F227A NaChBac channels versus WT,F227A NaChBac,no change in block
same,"G–V slope factor k[n], NaChBac, after compound",NaChBac,4.8 ± 0.4
same,% of block in NaChBac,NaChBac; hek 293 cells,74.1±2.3%
Cc1cccc(C)c1NC(=O)CC12CCCN1CCC2 [Pilsicaineide],% of block in NaChBac,NaChBac,50.5±2.7%
QX-222,% of block in NaChBac,NaChBac,15.3±2.7%
CC[N+](CC)(CC)CC(=O)Nc1c(C)cccc1C [QX-314],% of block in NaChBac,NaChBac; hek 293 cells,16.2±2.6%
